Data taken from article PMC12311729, “Probing the Mechanism of L‑DOPA 2,3-Dioxygenase Using Synthetic Derivatives of 3,4-Dihydroxyhydrocinnamic Acid” (ACS Omega, 2025).

Key:
[1] = Cyclic voltammetry (redox potentials on a GCE); type: physicochemical; details: for (E p)a Oxidation / (E p)c Reduction / E1/2 / Ipa/Ipc / ΔE p: GCE (d = 2 mm)
From the text: Reduction and oxidation potentials were experimentally performed by cyclic voltammetry (CV) at biological pH 7.4, as previously described. All samples were run on a CH Instruments 600E Potentiostat in a one-compartment cell equipped with a three-electrode system arrangement. The three-electrode system included a saturated calomel electrode as the reference electrode, a platinum wire as the auxiliary electrode, and a glassy carbon electrode (GCE, d = 2 mm) as the working electrode. The GCE was polished between each sample scan with an aqueous slurry of alumina powder on a microcloth pad. The electrodes were rinsed with distilled water prior to the next scan. All scans were conducted under nitrogen for oxygen displacement and at room temperature (rt, 25 ± 1 °C). All samples were prepared as close to the scan as possible (approximately 2 min each). Each sample (5 mL) contained 0.1 mM catecholic substrate and 1 μM DMSO in 0.1 M phosphate buffer at a pH of 7.4 or 6.0. […] The cyclic voltammograms for the compounds at both pH 6.0 and 7.4 are available in Figures S40–S51.

[2] = biological target: L-DOPA 2,3-dioxygenase from S. hygroscopicus jingganensis (ShjDDO) (Streptomyces hygroscopicus, UniProt H2JL11); assay: UV-visible steady-state assay of L-DOPA 2,3-dioxygenase (ShjDDO); type: biochemical; details: for kSP, O2 (μM^-1 min^-1) at pH 7.5 relative to L-DOPA x 100 for ShjDDO: percentage of the value for L-DOPA
Protocol: Purified, reconstituted L-DOPA 2,3-dioxygenases were assessed for activity by monitoring the cleavage of catecholic substrates using UV–visible spectroscopy. 3,4-Dihydroxyhydrocinnamic acid (DHHCA, 3) was purchased from Sigma-Aldrich. 6-CyanoDHHCA (5) and 6-bromoDHHCA (4) were synthesized as described above.
Molecular oxygen (AirGas) was bubbled directly into the reaction buffer through a glass-bonded silica gas diffuser (Bubblemac Industries, Inc.) or as a gas mixture blended with air (AirGas). Solutions were bubbled with oxygen for several minutes prior to use and for the duration of the experiment. To determine the K M for oxygen (i.e., K MO2), L-DOPA 2,3-dioxygenases (0.25–4.0 μM) were reacted with a saturating concentration of the catecholic substrate DHHCA/6-X-DHHCA derivatives (2–10× the K M sufficient to achieve k cat) and various oxygen concentrations (21–100% or 270–1300 μM at 22 °C). The concentration of oxygen was varied by changing the percentage of oxygen in the blend using a galvanic oxygen sensor and oxygen monitor (AirGas) and then bubbling solutions, as described above. Molecular oxygen percentages were converted to molar concentrations using a reference temperature of 22 °C. The reaction of L-DOPA 2,3-dioxygenases with DHHCA/6-X-DHHCA derivatives as a function of oxygen concentration was followed by the appearance of the steady-state cleavage product by using UV–visible spectroscopy.
The extinction coefficients for steady-state cleavage products of DHHCA and synthetic 6-X-DHHCA derivatives were determined by reacting various concentrations of DHHCA/6-X-DHHCA derivatives at 22 °C with a 10-fold stoichiometric excess of enzyme (quantified by Fe^II–see Reconstitution) in 50 mM HEPES buffer with 154 mM NaCl at pH 7.5, bubbled with 100% oxygen to a final concentration of 780–910 μM, depending on the volume of oxygenated buffer that comprised the reaction (60–70%). Substrate solutions were prepared from authentic synthetic standards using an analytical balance, and reactions were run to completion as assessed by the appearance of the steady-state product. The λmax and extinction coefficients of DHHCA, 6-cyanoDHHCA, and 6-bromoDHHCA were determined herein as ε380 = 40 740 ± 820 M^–1cm^–1, ε385 = 33 256 ± 484 M^–1cm^–1, and ε380 = 35 282 ± 1190 M^–1cm^–1, respectively (Figure S52).
Steady-state kinetic data were obtained through a UV–visible spectroscopic assay. Initial rates were obtained from the slopes of the linear regions of the progress curves and plotted versus substrate concentration to yield a hyperbola, which was analyzed using the Michaelis–Menten expression and nonlinear least-squares fitting (NLSF) with Origin 6.0 (Microcal). Two possible derivations of the Michaelis–Menten expression were used: 1) the traditional expression y = k cat × x/(K M + x), where y is Rate/E 0 or the rate of product formation (μM/min) divided by the starting enzyme concentration (μM), x is substrate concentration (μM) and k SP (also known as k cat × K M ^–1)–that is, the second-order rate constant of enzyme and substrate–is extracted from the fitted constants; or 2) the alternative derivation that extracts k SP and k cat directly from the fit: y = (k SP × x)/((1 + k SP × x)/k cat), and where y is Rate/E 0 or the rate of product formation (μM/min) divided by the starting enzyme concentration (μM), x is substrate concentration (μM), k SP is equivalent to k cat×K M ^–1, and K M is extracted from k cat/k cat×K M ^–1.

[3] = Determination of pKa values by spectrophotometric titration; details: for pK a value: first catecholic deprotonation, determined spectroscopically from pH 3 to 12.5
Protocol: A buffer system utilizing five different buffers was prepared to cover the pH range of 3.0 to 12.50. A Thermo Scientific Orion Star A211 pH meter was used to measure and determine the pH of each buffer. The pH meter was calibrated using three- and four-point calibration with pH values of 4.00, 7.01, and 10.01 and 4.00, 7.01, 10.01, and 12.00, respectively.
The buffer systems were prepared as previously described and included: NaOAc/HOAc buffers (C = 0.1 M; I = 0.1 M) were used to cover the pH range of 3.0 to 5.50. KH2PO4/K2HPO4 buffers (C = 0.05 M; I = 0.1 M) were used to cover the pH range of 6.00 to 8.00. CHES buffers (C = 0.05 M; I = 0.1 M) were used to cover the pH range of 8.50 to 10.50. Na2HPO4/Na3PO4 buffers (C = 0.05 M; I = 0.1 M) were used to cover the pH range of 11.00 to 12.00. KCl buffers (C = 0.1 M; I = 0.1 M) were used to cover the pH range of 12.00 to 12.50.
The absorbance spectra of the compounds were determined at each pH as previously described. Briefly, a stock solution was prepared for each compound by weighing 2 mg of the compound using a high-precision analytical balance. Each compound was then dissolved in DMSO at a concentration of 10 mM. A UV-transparent 96-well microplate (Corning clear acrylic 96-well UV plate with a UV-transparent flat bottom) was loaded with 196 μL of buffer solution and 4 μL of the catechol stock in each well to get a final concentration of 200 μM. DMSO (4 μL) was added to 196 μL of the appropriate buffer to produce a blank solution for each buffer.
The 96-well plate was loaded into the microplate reader and incubated at 30 °C and shaken for 10 min before the reading. Absorbance readings were completed by using a Synergy HTX 15032517 microplate reader. Each well was read at wavelengths from 210 to 600 nm with 2-nm increments for each scan over a duration of 60 min.
The data were analyzed as previously described. Raw UV-spectra scans were exported to the Excel program. They were first processed by subtracting the reading of the blank solutions from the reading of each compound at the corresponding wavelengths. […] Finally, the spectral difference between the pH 3.0 buffer and the spectra at all other pH values was plotted. Additionally, the spectral difference between the pH 4.0 buffer and the spectra at all other higher pH values was plotted. The wavelengths for the maximum positive and negative absorbance were determined by using the graphs of the spectral difference plots, both for the pH 3.0 and pH 4.0 spectral difference plots. The absolute maximum positive and total absorbance differences at these chosen wavelengths were plotted against the pH of each buffer. The data were imported into the Origin 6.0 program, and the pK a values were determined with a nonlinear regression using eq : 1 Absorbancetotal=εHA−εA−[10^(pH−pKa)]/1+10^(pH−pKa)×[St]
εHA is the extinction coefficients of the acid form of the compound, and εA ^– is the extinction coefficient of the base form of the compound (i.e., the minima and maxima of the absorbance difference curve, respectively), and [S t] is the total compound concentration.

[4] = percentage of the value for L-DOPA

Sequence of L-DOPA 2,3-dioxygenase from S. hygroscopicus jingganensis (ShjDDO) (H2JL11 1-162): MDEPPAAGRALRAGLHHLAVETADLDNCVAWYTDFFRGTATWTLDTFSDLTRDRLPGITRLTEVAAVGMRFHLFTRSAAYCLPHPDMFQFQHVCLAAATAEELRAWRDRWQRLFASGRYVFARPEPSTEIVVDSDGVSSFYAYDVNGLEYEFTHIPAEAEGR

N#Cc1cc(O)c(O)cc1CCC(=O)O [6-CyanoDHHCA (5), 3-(2-cyano-4,5-dihydroxyphenyl) propanoic acid]
(E p)a Oxidation ([1]; pH 6.0): 358 mV
(E p)c Reduction ([1]; pH 6.0): 260 mV
E1/2 ([1]; pH 6.0): 309 mV
Ipa/Ipc ([1]; pH 6.0): 3.92
ΔE p ([1]; pH 6.0): 98 mV
(E p)a Oxidation ([1]; pH 7.4): 272 mV
(E p)c Reduction ([1]; pH 7.4): 147 mV
E1/2 ([1]; pH 7.4): 209.5 mV
Ipa/Ipc ([1]; pH 7.4): 1.96
ΔE p ([1]; pH 7.4): 125 mV
E1/2 (mV) at pH 7.4 relative to L-DOPA x 100 [1, 4]: 104%
kcat at 22 °C and 100% O2 saturation ([2]; S. hygroscopicus jingganensis enzyme, pH 7.5): 1.1 × 10^–3 ± 1.0 × 10 ^–4 sec^–1
kSP,O2 × 10^2 at 22 °C ([2]; S. hygroscopicus jingganensis enzyme, values are kSP × 10^2): 4.0 × 10^–2 ± 6.0 × 10 ^–3 μM^–1 min^–1
kSP catechol × 10^2 at 22 °C ([2]; S. hygroscopicus jingganensis enzyme, values are kSP × 10^2, kSP = kcat/KM): 2.8 × 10^–2 ± 7.1 × 10 ^–3 μM^–1 min^–1
activity / turnover as substrate ([2]; ShjDDO, aerobic reaction observed by UV–visible spectroscopy): measurable activity
kSP, O2 (μM^-1 min^-1) at pH 7.5 relative to L-DOPA x 100 for ShjDDO ([2]; listed as 6-cyanoDHHCA): 0.03%
kSP, O2 (μM^-1 min^-1) at pH 7.5 relative to L-DOPA x 100 for ShjDDO ([2]; listed as 6-cyanoDHHCA (5)): < 0.1%
ratio of charge states (k1/k-1) predicted by pKa value and Henderson-Hasselbach equation ([3]; at pH 7.35): 1.44
pK a value [3]: 7.51 ± 0.06
pK a value ([3]; listed as 6-cyanoDHHCA): 7.51
Catecholic pKa value relative to L-DOPA x 100 [3, 4]: 85%
